The text below walks through data of ChEMBL document CHEMBL4480451, “Novel nonapeptide GLP (28-36) amide derivatives with improved hypoglycemic and body weight lowering effects” (2019).

For assay [1], the system named is Mus musculus. Kind of assay: Hypoglycemic activity in ICR mouse assessed as plasma glucose level at 1 umol/kg, ip pretreated 30 mins prior to glucose challenge and measured at 15 mins post challenge by intraperitoneal glucose tolerance test (reference value: 15.3 +/- 1.2 mmol/L). It is filed as functional.
Assay [2] relates to Mus musculus. Description: Antiobesity activity in C57BL/6J mouse model of diet-induced obesity assessed as reduction in serum total cholesterol levels at 1 umol/kg, ip qd for 4 weeks. The format is functional, organism-based.
The subject of assay [3] is Mus musculus. Kind of assay: Antidiabetic activity in STZ-induced diabetic ICR mouse model assessed as fasting blood glucose level at 10 umol/kg, ip for 5 consecutive days by glucometery (reference value: 17.7 +/- 1.1 mM). The format is functional.
Assay [4] concerns Mus musculus. Kind of assay: Antiobesity activity in C57BL/6J mouse model of diet-induced obesity assessed as increase in small brown adipocytes at 1 umol/kg, ip qd for 4 weeks by haematoxylin and eosin staining-based assay. The format is functional, organism-based.
Assay [5] has as its system INS1. Kind of assay: Cytoprotective activity against H2O2-induced oxidative stress-mediated cell death in rat INS-1 cells assessed as reduction in apoptotic cells at 0.1 to 10 uM after 24 hrs by Annexin V/propidium iodide staining-based flow cytometric analysis. The format is functional.
For assay [6], the system named is INS1. Kind of assay: Cytoprotective activity against glucolipotoxicity-mediated cell death in rat INS-1 cells assessed as reduction in apoptotic cells at 0.1 to 10 uM after 24 hrs by Annexin V/propidium iodide staining-based flow cytometric analysis. It is filed as functional.
The subject of assay [7] is Mus musculus. Description: Antiobesity activity in C57BL/6J mouse model of diet-induced obesity assessed as reduction in LDL/HDL levels at 1 umol/kg, ip qd for 4 weeks. It is filed as functional, organism-based.
In assay [8] the test system is Mus musculus. Kind of assay: Antiobesity activity in C57BL/6J mouse model of diet-induced obesity assessed as reduction in cumulative food intake at 1 umol/kg, ip qd for 4 weeks relative to control. The arrangement: scale not given: the % may be the effect or the level left. The format is functional.
In assay [9] the test system is INS1. Kind of assay: Cytoprotective activity against glucolipotoxicity-mediated cell death in rat INS-1 cells assessed as reduction in cell viability at 10 uM after 24 hrs by MTT assay (reference value: 31%). The format is functional.
Assay [10] concerns INS1. Kind of assay: Cytoprotective activity against H2O2-induced oxidative stress-mediated cell death in rat INS-1 cells assessed as reduction in cell viability at 10 uM after 24 hrs by MTT assay (reference value: 37%). The format is functional.
In assay [11] the test system is INS1. Description: Cytoprotective activity against STZ-mediated cell death in rat INS-1 cells assessed as reduction in apoptotic cells at 0.1 to 10 uM after 24 hrs by Annexin V/propidium iodide staining-based flow cytometric analysis. The format is functional.
For assay [12], the system named is Mus musculus. Description: Antiobesity activity in C57BL/6J mouse model of diet-induced obesity assessed as reduction in circulating leptin level at 1 umol/kg, ip qd for 4 weeks. The format is functional, organism-based.
Assay [13] has as its system Mus musculus. Description: Hypoglycemic activity in ICR mouse assessed as reduction in plasma glucose AUC (0 to 120 mins) at 1 umol/kg, ip pretreated 30 mins prior to glucose challenge […] by intraperitoneal glucose tolerance test. It is filed as functional, organism-based.
Assay [14] deals with Mus musculus. Description: Antiobesity activity in C57BL/6J mouse model of diet-induced obesity assessed as reduction in triglyceride levels at 1 umol/kg, ip qd for 4 weeks. It is filed as functional, organism-based.
Assay [15] concerns INS1. Description: Cytoprotective activity against STZ-mediated cell death in rat INS-1 cells assessed as reduction in cell viability at 10 uM after 24 hrs by MTT assay (reference value: 50%). It is filed as functional.
The test system of assay [16] is Mus musculus. Description: Antiobesity activity in C57BL/6J mouse model of diet-induced obesity assessed as reduction in AST levels at 1 umol/kg, ip qd for 4 weeks. The format is functional, organism-based.
In assay [17] the test system is Mus musculus. Description: Antidiabetic activity in STZ-induced diabetic ICR mouse model assessed as fasting blood glucose level at 1 umol/kg, ip for 5 consecutive days by glucometery (reference value: 17.7 +/- 1.1 mM). The format is functional.
Assay [18] has as its system Mus musculus. Kind of assay: Antidiabetic activity in STZ-induced diabetic ICR mouse model assessed as fasting blood glucose level at 0.1 umol/kg, ip for 5 consecutive days by glucometery (reference value: 17.7 +/- 1.1 mM). The format is functional.
The subject of assay [19] is Mus musculus. Kind of assay: Antiobesity activity in C57BL/6J mouse model of diet-induced obesity assessed as reduction in body weight at 1 umol/kg, ip qd for 4 weeks. It is filed as functional, organism-based.
The test system of assay [20] is Mus musculus. Description: Antiobesity activity in C57BL/6J mouse model of diet-induced obesity assessed as reduction in ALT levels at 1 umol/kg, ip qd for 4 weeks. The format is functional, organism-based.
For assay [21], the system named is Mus musculus. Kind of assay: Antidiabetic activity in STZ-induced diabetic ICR mouse model assessed as reduction in HbA1c level at 0.1 to 10 umol/kg, ip for 5 consecutive days. It is filed as functional, organism-based.
In assay [22] the test system is Mus musculus. Description: Antiobesity activity in C57BL/6J mouse model of diet-induced obesity assessed as reduction in circulating adiponectin level at 1 umol/kg, ip qd for 4 weeks. The format is functional, organism-based.
For assay [23], the system named is INS1. Kind of assay: Cytoprotective activity against STZ-mediated cell death in rat INS-1 cells assessed as reduction in cell viability at 1 uM after 24 hrs by MTT assay (reference value: 50%). It is filed as functional.

Calls of active or inactive are those of the source. The rule behind the calls is not given here.

In the case of H-FIAWLVKGRKKK-NH2, the Activity in the assay with Mus musculus [1] was determined as 10.8 mmol/L; in the assay on Mus musculus [3], 15.03 mM; in the assay with Mus musculus [8], 12.7%; in the assay with INS1 [9], 21%; with INS1 [10], 17%; in the assay with INS1 [15], 29%. The Activity with Mus musculus [17] came to 14.9 mM; with Mus musculus [18] it was 16.5 mM; in the assay with INS1 [23] it was 36%. For the same substance, the result in the assay on Mus musculus [2], with Mus musculus [4], in the assay with INS1 [5], in the assay with INS1 [6], in the assay on INS1 [11] and with Mus musculus [13] was Active. Further, the outcome in the assay with Mus musculus [14], in the assay with Mus musculus [16], in the assay on Mus musculus [19] and in the assay with Mus musculus [20] was Active. For the same substance, the outcome with Mus musculus [7], with Mus musculus [12], with Mus musculus [21] and with Mus musculus [22] was inactive.
As for H-FIAWLVKGRKKKKKK-NH2, in the assay on Mus musculus [1], the Activity was 11.9 mmol/L. In the assay on Mus musculus [13], the outcome was Active.
